Test system: individuals who have previously had an MI
Test: CARE trial: effect of pravastatin vs placebo on coronary events (endpt1, rmi) by SNP genotype subgroup
Format: in vivo, human
Procedure: In Tables 21-22, the column labeled “Endpoint” indicates whether the endpoint that was analyzed was the primary endpoint of the CARE study (a composite endpoint of fatal coronary event or nonfatal MI, and identified as “endpt1”) or a composite endpoint of confirmed fatal or nonfatal MI (identified as “rmi”). […] As used herein, the term “benefit” (with respect to a preventive or therapeutic drug treatment) is defined as achieving a reduced risk for a disease that the drug is intended to treat or prevent (e.g., CVD such as CHD, particularly MI, or hypertension) by administering the drug treatment, compared with the risk for the disease in the absence of receiving the drug treatment (or receiving a placebo in lieu of the drug treatment) for the same genotype. […] J. […] (1996) New England Journal of Medicine 335: 1001-1009. […] A well-documented MI was one of the enrollment criteria for entry into the CARE study. Patients were enrolled in the CARE trial from 80 participating study centers. […] For the study of CARE described in this Example and shown in Tables 21-22, two endpoints were investigated: the primary endpoint of CARE (a composite endpoint of fatal coronary event or nonfatal MI, and identified as “endpt1” in the Endpoint column of Tables 21-22) and a composite endpoint of confirmed fatal or nonfatal MI (identified as “rmi” in the Endpoint column of Tables 21-22). […] HR stands for Hazard Ratio, which is a concept similar to Odds Ratio (OR). The HR in event-free survival analysis is the effect of an explanatory variable on the hazard or risk of an event. […] In Table 21, p-interaction values were calculated. An interaction (or effect modification) is formed when a third variable modifies the relation between an exposure and outcome. […] Genotype and drug interaction is present when the effect of statins (incidence rate of disease in statin-treated group, as compared to placebo) differs in patients with different genotypes.

[1] = endpt1, hCV370782 rs9841174 SERPINI2, CC
[2] = endpt1, hCV370782 rs9841174 SERPINI2, CT + TT
[3] = endpt1, hCV795442 rs375947 IL12RB1, AA
[4] = endpt1, hCV795442 rs375947 IL12RB1, GA + GG
[5] = endpt1, hCV818008 rs5918 ITGB3, CC
[6] = endpt1, hCV818008 rs5918 ITGB3, CT + TT
[7] = endpt1, hCV904973 rs7412 APOE, CC
[8] = endpt1, hCV904973 rs7412 APOE, TC + TT
[9] = endpt1, hCV997884 rs512770, AG + GG
[10] = endpt1, hCV2553030 rs11230562 CD6, TC + CC
[11] = endpt1, hCV2553030 rs11230562 CD6, TT
[12] = endpt1, hCV2769554 rs1805010 IL4R, GA + AA
[13] = endpt1, hCV2769554 rs1805010 IL4R, GG
[14] = endpt1, hCV2822674 rs1801222 CUBN, AA
[15] = endpt1, hCV2822674 rs1801222 CUBN, AG + GG
[16] = endpt1, hCV2983036 rs9527025 KL, CC
[17] = endpt1, hCV2983036 rs9527025 KL, CG
[18] = endpt1, hCV2983036 rs9527025 KL, GG
[19] = endpt1, hCV2992252 rs6037651 SIGLEC1, CC
[20] = endpt1, hCV2992252 rs6037651 SIGLEC1, CT + TT
[21] = endpt1, hCV3135085 rs10795446 CUBN, GG
[22] = endpt1, hCV3187716 rs5186 AGTR1, CA + AA
[23] = endpt1, hCV3187716 rs5186 AGTR1, CC
[24] = endpt1, hCV3215409 rs267561 ITGA9, GA + AA
[25] = endpt1, hCV3215409 rs267561 ITGA9, GG
[26] = endpt1, hCV3219460 rs1799983 NOS3, TG + GG
[27] = endpt1, hCV3219460 rs1799983 NOS3, TT
[28] = endpt1, hCV7514870 rs1041981 LTA, AA
[29] = endpt1, hCV7514870 rs1041981 LTA, AC + CC
[30] = endpt1, hCV8705506 rs5516 KLK1, CG + CC
[31] = endpt1, hCV8705506 rs5516 KLK1, GG
[32] = endpt1, hCV8708473 rs1800469 TMEM91, AA
[33] = endpt1, hCV8708473 rs1800469 TMEM91, AG + GG
[34] = endpt1, hCV8708474 rs1800468 MGC4093, CC
[35] = endpt1, hCV8708474 rs1800468 MGC4093, TC + TT
[36] = endpt1, hCV8709053 rs4880 SOD2, GA + AA
[37] = endpt1, hCV8709053 rs4880 SOD2, GG
[38] = endpt1, hCV8718197 rs1050998 CXCL16, AA
[39] = endpt1, hCV8718197 rs1050998 CXCL16, GA + GG
[40] = endpt1, hCV8726337 rs5498 ICAM1, AA
[41] = endpt1, hCV8726337 rs5498 ICAM1, GA + GG
[42] = endpt1, hCV8737990 rs419598 IL1RN, CC
[43] = endpt1, hCV8737990 rs419598 IL1RN, CT + TT
[44] = endpt1, hCV8784787 rs688976, AA
[45] = endpt1, hCV8784787 rs688976, AC + CC
[46] = endpt1, hCV8804621 rs1390938 SLC18A1, AA
[47] = endpt1, hCV8804621 rs1390938 SLC18A1, AG + GG
[48] = endpt1, hCV8848630 rs7192 HLA-DRA, GG
[49] = endpt1, hCV8848630 rs7192 HLA-DRA, TG + TT
[50] = endpt1, hCV8851047 rs45614833 HLA-DPA1, CC

## CC[C@H](C)C(=O)O[C@H]1C[C@H](O)C=C2C=C[C@H](C)[C@H](CC[C@@H](O)C[C@@H](O)CC(=O)O)[C@H]21 [pravastatin]
CARE, SNP hCV11170747, genotype strata in row order
  Hazard ratio, Pravastatin vs placebo: 0.87
[1]
  EVENTS (Pravastatin arm): 20
  NONEVENT (Pravastatin arm): 194
[2]
  EVENTS (Pravastatin arm): 113
  NONEVENT (Pravastatin arm): 1097
[3]
  EVENTS (Pravastatin arm): 52
  NONEVENT (Pravastatin arm): 599
[4]
  EVENTS (Pravastatin arm): 80
  NONEVENT (Pravastatin arm): 691
[5]
  EVENTS (Pravastatin arm): 7
  NONEVENT (Pravastatin arm): 26
[6]
  EVENTS (Pravastatin arm): 126
  NONEVENT (Pravastatin arm): 1266
[7]
  EVENTS (Pravastatin arm): 114
  NONEVENT (Pravastatin arm): 1149
[8]
  EVENTS (Pravastatin arm): 19
  NONEVENT (Pravastatin arm): 141
endpt1, hCV997884 rs512770, AA
  EVENTS (Pravastatin arm): 5
  NONEVENT (Pravastatin arm): 42
[9]
  EVENTS (Pravastatin arm): 126
  NONEVENT (Pravastatin arm): 1241
[10]
  EVENTS (Pravastatin arm): 129
  NONEVENT (Pravastatin arm): 1179
[11]
  EVENTS (Pravastatin arm): 3
  NONEVENT (Pravastatin arm): 107
[12]
  EVENTS (Pravastatin arm): 101
  NONEVENT (Pravastatin arm): 1001
[13]
  EVENTS (Pravastatin arm): 32
  NONEVENT (Pravastatin arm): 287
[14]
  EVENTS (Pravastatin arm): 10
  NONEVENT (Pravastatin arm): 150
[15]
  EVENTS (Pravastatin arm): 123
  NONEVENT (Pravastatin arm): 1140
[16]
  EVENTS (Pravastatin arm): 4
  NONEVENT (Pravastatin arm): 22
[17]
  EVENTS (Pravastatin arm): 32
  NONEVENT (Pravastatin arm): 363
[18]
  EVENTS (Pravastatin arm): 97
  NONEVENT (Pravastatin arm): 906
[19]
  EVENTS (Pravastatin arm): 8
  NONEVENT (Pravastatin arm): 196
[20]
  EVENTS (Pravastatin arm): 124
  NONEVENT (Pravastatin arm): 1089
[21]
  EVENTS (Pravastatin arm): 10
  NONEVENT (Pravastatin arm): 147
[22]
  EVENTS (Pravastatin arm): 128
  NONEVENT (Pravastatin arm): 1176
[23]
  EVENTS (Pravastatin arm): 5
  NONEVENT (Pravastatin arm): 112
[24]
  EVENTS (Pravastatin arm): 118
  NONEVENT (Pravastatin arm): 1057
[25]
  EVENTS (Pravastatin arm): 15
  NONEVENT (Pravastatin arm): 235
[26]
  EVENTS (Pravastatin arm): 124
  NONEVENT (Pravastatin arm): 1114
[27]
  EVENTS (Pravastatin arm): 9
  NONEVENT (Pravastatin arm): 177
[28]
  EVENTS (Pravastatin arm): 12
  NONEVENT (Pravastatin arm): 172
[29]
  EVENTS (Pravastatin arm): 121
  NONEVENT (Pravastatin arm): 1118
[30]
  EVENTS (Pravastatin arm): 66
  NONEVENT (Pravastatin arm): 749
[31]
  EVENTS (Pravastatin arm): 67
  NONEVENT (Pravastatin arm): 543
[32]
  EVENTS (Pravastatin arm): 9
  NONEVENT (Pravastatin arm): 139
[33]
  EVENTS (Pravastatin arm): 124
  NONEVENT (Pravastatin arm): 1153
[34]
  EVENTS (Pravastatin arm): 103
  NONEVENT (Pravastatin arm): 1068
[35]
  EVENTS (Pravastatin arm): 30
  NONEVENT (Pravastatin arm): 212
[36]
  EVENTS (Pravastatin arm): 105
  NONEVENT (Pravastatin arm): 954
[37]
  EVENTS (Pravastatin arm): 28
  NONEVENT (Pravastatin arm): 335
[38]
  EVENTS (Pravastatin arm): 33
  NONEVENT (Pravastatin arm): 409
[39]
  EVENTS (Pravastatin arm): 98
  NONEVENT (Pravastatin arm): 879
[40]
  EVENTS (Pravastatin arm): 31
  NONEVENT (Pravastatin arm): 430
[41]
  EVENTS (Pravastatin arm): 102
  NONEVENT (Pravastatin arm): 857
[42]
  EVENTS (Pravastatin arm): 15
  NONEVENT (Pravastatin arm): 96
[43]
  EVENTS (Pravastatin arm): 117
  NONEVENT (Pravastatin arm): 1193
[44]
  EVENTS (Pravastatin arm): 6
  NONEVENT (Pravastatin arm): 57
[45]
  EVENTS (Pravastatin arm): 126
  NONEVENT (Pravastatin arm): 1234
[46]
  EVENTS (Pravastatin arm): 8
  NONEVENT (Pravastatin arm): 69
[47]
  EVENTS (Pravastatin arm): 125
  NONEVENT (Pravastatin arm): 1218
[48]
  EVENTS (Pravastatin arm): 59
  NONEVENT (Pravastatin arm): 485
[49]
  EVENTS (Pravastatin arm): 74
  NONEVENT (Pravastatin arm): 802
[50]
  EVENTS (Pravastatin arm): 7
  NONEVENT (Pravastatin arm): 32
endpt1, hCV8851047 rs45614833 HLA-DPA1, CT + TT
  EVENTS (Pravastatin arm): 126

Reference: US8216786B2, “Genetic polymorphisms associated with cardiovascular diseases, methods of detection and uses thereof” (Celera Corporation, priority 2008, dated 2012)
